21 compounds from ChEMBL document CHEMBL2046372, “Design and synthesis of pyrrolo[3,2-d]pyrimidine human epidermal growth factor receptor 2 (HER2)/epidermal growth factor receptor (EGFR) dual inhibitors: exploration of novel back-pocket binders” (J Med Chem, 2012) can be followed below.

Calls of active or inactive are those of the source. No cut-off for these calls is given here.

Data set [1] deals with Epidermal growth factor receptor (Homo sapiens, UniProt P00533). The experiment in a line: Inhibition of N-terminus peptide-tagged human recombinant EGFR expressed using baculovirus infection system using [gamma-33P]-ATP preincubated with compound for 5 mins measured after 10 mins by scintillation counting.
In data set [2] the test system is BT-474. Nature of the data set: Growth inhibition of human BT474 cells overexpressing HER2 gene after 5 days. It counts as functional. The note with it: BT-474, 120 h.
Data set [3] has as its target T1, Receptor tyrosine-protein kinase erbB-2 (Homo sapiens, UniProt P04626). Nature of the data set: Inhibition of N-terminus peptide-tagged human recombinant HER2 expressed using baculovirus infection system using [gamma-33P]-ATP preincubated with compound for 5 mins measured after 10 mins by scintillation counting.
Data set [4] concerns the target T1, Receptor tyrosine-protein kinase erbB-2. The experiment in a line: Pseudo-irreversible inhibition of N-terminus peptide-tagged human recombinant HER2 expressed using baculovirus infection system using [gamma-33P]-ATP preincubated with compound for 5 mins at 10 times IC50 concentration measured after 10 mins by scintillation counting.
Data set [5] can be described thus: Metabolic stability in human liver microsomes at 1 umol/L after 20 mins by HPLC analysis. The note with it: read-out: Stability. Type of data set: ADME, Microsome.
The nature of data set [6]: Metabolic stability in mouse liver microsomes at 1 umol/L after 20 mins by HPLC analysis. Type of data set: ADME, Microsome. The note with it: read-out: Stability.
The target in data set [7] is CYP3A4 (Homo sapiens, UniProt P08684). Nature of the data set: Inhibition of CYP3A4 at 10 uM after 15 mins. Type of data set: ADME.
Chain of CYP3A4 (P08684 whole entry): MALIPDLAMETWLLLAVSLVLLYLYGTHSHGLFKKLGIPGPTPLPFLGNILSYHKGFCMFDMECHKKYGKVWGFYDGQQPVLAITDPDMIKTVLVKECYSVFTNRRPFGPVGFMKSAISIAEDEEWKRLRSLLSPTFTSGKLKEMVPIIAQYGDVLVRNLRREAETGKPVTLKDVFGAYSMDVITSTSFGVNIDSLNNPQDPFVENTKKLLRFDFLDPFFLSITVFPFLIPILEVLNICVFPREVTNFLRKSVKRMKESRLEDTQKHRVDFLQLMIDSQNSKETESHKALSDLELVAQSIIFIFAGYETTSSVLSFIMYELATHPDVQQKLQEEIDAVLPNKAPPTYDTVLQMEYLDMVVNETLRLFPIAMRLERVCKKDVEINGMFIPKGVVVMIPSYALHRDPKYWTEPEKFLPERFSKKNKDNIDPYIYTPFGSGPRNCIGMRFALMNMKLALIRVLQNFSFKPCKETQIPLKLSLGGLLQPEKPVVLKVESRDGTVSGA

Chain of Epidermal growth factor receptor (P00533 whole entry): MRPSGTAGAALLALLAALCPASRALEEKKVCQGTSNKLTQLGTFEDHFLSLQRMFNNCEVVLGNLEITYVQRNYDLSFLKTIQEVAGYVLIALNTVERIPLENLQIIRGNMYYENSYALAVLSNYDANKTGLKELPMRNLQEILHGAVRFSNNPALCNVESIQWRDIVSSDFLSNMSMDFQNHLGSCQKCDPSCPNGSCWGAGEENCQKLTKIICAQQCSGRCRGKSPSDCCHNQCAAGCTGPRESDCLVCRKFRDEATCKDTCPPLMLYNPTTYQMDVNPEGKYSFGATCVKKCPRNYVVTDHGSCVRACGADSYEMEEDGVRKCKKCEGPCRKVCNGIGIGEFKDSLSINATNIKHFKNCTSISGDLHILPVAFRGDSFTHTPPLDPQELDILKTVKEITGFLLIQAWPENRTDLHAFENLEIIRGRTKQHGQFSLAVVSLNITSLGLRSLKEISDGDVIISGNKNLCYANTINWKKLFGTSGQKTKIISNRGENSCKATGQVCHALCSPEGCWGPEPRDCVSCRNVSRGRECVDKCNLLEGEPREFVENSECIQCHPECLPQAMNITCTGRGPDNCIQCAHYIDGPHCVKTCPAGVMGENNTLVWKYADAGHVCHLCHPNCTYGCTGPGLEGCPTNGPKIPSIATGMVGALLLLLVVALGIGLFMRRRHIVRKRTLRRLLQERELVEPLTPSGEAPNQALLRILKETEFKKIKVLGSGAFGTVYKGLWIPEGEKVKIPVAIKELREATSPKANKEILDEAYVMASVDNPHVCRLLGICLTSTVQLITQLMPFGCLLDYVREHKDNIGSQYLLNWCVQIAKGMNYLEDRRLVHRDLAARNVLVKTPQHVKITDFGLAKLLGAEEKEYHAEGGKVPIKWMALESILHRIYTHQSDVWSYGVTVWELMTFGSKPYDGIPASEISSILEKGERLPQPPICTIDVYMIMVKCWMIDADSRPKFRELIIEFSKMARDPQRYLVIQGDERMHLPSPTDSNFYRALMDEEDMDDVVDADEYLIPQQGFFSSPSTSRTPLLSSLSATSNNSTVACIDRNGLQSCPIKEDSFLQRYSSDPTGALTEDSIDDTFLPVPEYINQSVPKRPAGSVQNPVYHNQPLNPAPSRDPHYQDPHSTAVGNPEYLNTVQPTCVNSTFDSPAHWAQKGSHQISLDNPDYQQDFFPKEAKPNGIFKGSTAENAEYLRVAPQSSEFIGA
T1 sequence (P04626 whole entry): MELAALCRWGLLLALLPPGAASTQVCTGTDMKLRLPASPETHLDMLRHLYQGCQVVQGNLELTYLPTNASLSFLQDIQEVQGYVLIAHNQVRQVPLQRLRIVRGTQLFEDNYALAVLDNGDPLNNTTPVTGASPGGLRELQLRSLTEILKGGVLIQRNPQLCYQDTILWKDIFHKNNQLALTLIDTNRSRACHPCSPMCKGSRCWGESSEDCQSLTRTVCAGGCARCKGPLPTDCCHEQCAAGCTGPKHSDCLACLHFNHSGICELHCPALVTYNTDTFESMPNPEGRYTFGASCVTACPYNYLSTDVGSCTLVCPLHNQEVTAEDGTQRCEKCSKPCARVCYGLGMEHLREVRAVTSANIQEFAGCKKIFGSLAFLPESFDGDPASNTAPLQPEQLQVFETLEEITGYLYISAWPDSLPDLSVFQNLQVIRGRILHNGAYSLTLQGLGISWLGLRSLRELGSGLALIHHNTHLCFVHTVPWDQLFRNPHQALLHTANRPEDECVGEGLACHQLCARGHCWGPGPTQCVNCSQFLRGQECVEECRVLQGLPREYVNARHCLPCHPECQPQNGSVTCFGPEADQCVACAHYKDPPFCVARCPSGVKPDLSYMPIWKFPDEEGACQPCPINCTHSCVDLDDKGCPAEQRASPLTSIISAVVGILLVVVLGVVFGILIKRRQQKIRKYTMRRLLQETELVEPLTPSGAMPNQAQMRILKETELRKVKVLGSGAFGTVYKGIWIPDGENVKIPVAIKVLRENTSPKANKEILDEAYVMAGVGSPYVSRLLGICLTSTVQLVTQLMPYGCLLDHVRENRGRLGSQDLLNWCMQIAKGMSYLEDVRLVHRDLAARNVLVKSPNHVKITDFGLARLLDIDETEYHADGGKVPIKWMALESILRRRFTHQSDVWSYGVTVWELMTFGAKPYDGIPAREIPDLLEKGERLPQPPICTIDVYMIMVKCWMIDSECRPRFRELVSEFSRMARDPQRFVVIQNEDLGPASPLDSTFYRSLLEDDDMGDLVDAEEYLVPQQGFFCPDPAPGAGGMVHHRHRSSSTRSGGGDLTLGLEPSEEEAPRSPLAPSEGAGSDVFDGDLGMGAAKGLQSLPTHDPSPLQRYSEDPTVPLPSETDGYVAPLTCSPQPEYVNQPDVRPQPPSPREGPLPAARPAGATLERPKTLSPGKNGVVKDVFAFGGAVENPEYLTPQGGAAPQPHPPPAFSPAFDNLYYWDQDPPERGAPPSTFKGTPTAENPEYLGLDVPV

As for `OCCn1ccc2ncnc(Nc3ccc(Oc4cccc5[nH]ccc45)c(Cl)c3)c21`, the half-maximal inhibitory concentration (IC50) turned out to be 3.1 nM in data set [1] and 2.5 nM in data set [3]. In addition, in data set [2], the GI50 is 36 nM. In data set [4], the inhibition result was “Active”. Besides, the microsomal CLint at 1 µM in data set [5] was found to be 204 µL/min/mg.

In the case of `CC(C)(C(=O)NCCn1ccc2ncnc(Nc3ccc(Oc4cccc5sncc45)c(Cl)c3)c21)S(C)(=O)=O`, the IC50 amounted to 5.5 nM in data set [1] and 2 nM in data set [3]. Moreover, the 50% growth inhibitory concentration (GI50) in data set [2] stood at 8 nM. In addition, the microsomal CLint at 1 µM in data set [6] was found to be 76 µL/min/mg; in data set [5], 113 µL/min/mg. Further, the inhibition at 0.25 h, 10 µM in data set [7] was 49.9%.

As to `O=C(NCCn1ccc2ncnc(Nc3ccc(Oc4cccc5sncc45)c(Cl)c3)c21)[C@@H]1CCCN1`, the results for the 50% inhibitory concentration (IC50) in data set [1] and in data set [3] were 3 nM and 0.92 nM, respectively. The compound further showed a concentration for 50% growth inhibition (GI50) in data set [2] of 5.8 nM. For the same compound, the results for the microsomal CLint at 1 µM in data set [6] and in data set [5] were 74 µL/min/mg and 61 µL/min/mg, respectively. Also, in data set [7], the inhibition at 0.25 h, 10 µM was 35%.

As for `OCCn1ccc2ncnc(Nc3ccc(Oc4cccc5[nH]ncc45)c(Cl)c3)c21`, the IC50 in data set [1] worked out at 1.9 nM; in data set [3] it was 1.7 nM. Besides, the concentration for 50% growth inhibition (GI50) in data set [2] came out at 5.5 nM. Also, the microsomal CLint at 1 µM was found to be 123 µL/min/mg in data set [6] and 114 µL/min/mg in data set [5]. Moreover, the inhibition entry in data set [4] is “Active”.

With `CC(C)(C)C(=O)NCCn1ccc2ncnc(Nc3ccc(Oc4cccc5sncc45)c(Cl)c3)c21`, the concentration for half-maximal inhibition (IC50) is 21 nM in data set [1] and 6.1 nM in data set [3]. Besides, the 50% growth inhibitory concentration (GI50) in data set [2] was 9.2 nM. The figures for the microsomal CLint at 1 µM in data set [6] and in data set [5] were 108 µL/min/mg and 94 µL/min/mg, respectively. Also, in data set [7], the inhibition at 0.25 h, 10 µM was 33.5%.

`O=C1Cc2c(cccc2Oc2ccc(Nc3ncnc4ccn(CCO)c34)cc2Cl)N1`: the values for the IC50 in data set [1] and in data set [3] were 3 nM and 1.6 nM, respectively. This compound also came in with a concentration for 50% growth inhibition (GI50) in data set [2] of 13 nM. Moreover, the microsomal CLint at 1 µM in data set [6] was determined as 66 µL/min/mg; in data set [5], 141 µL/min/mg. Besides, the inhibition entry in data set [4] is “Active”.

In the case of `OCCn1ccc2ncnc(Nc3ccc(Oc4cccc5sccc45)c(Cl)c3)c21`, the IC50 was 8.8 nM in data set [1] and 6 nM in data set [3]. In addition, it took 15 nM to inhibit growth in data set [2] by half (GI50). Besides, the microsomal CLint at 1 µM in data set [6] stood at 24 µL/min/mg; in data set [5], 144 µL/min/mg. Further, the inhibition result in data set [4] was “Active”.

On to `O=C1NCc2c(Oc3ccc(Nc4ncnc5ccn(CCO)c45)cc3Cl)cccc21`, for which the half-inhibitory concentration (IC50) in data set [1] amounted to 890 nM; in data set [3], 150 nM. This compound also yielded a GI50 in data set [2] of 3360 nM. Besides, the inhibition result in data set [4] was “inactive”.

As for `CC(=O)NCCn1ccc2ncnc(Nc3ccc(Oc4cccc5sncc45)c(Cl)c3)c21`, the figures for the half-inhibitory concentration (IC50) in data set [1] and in data set [3] were 2.9 nM and 1.6 nM, respectively. The 50% growth inhibitory concentration (GI50) in data set [2] was found to be 4 nM. Moreover, the microsomal CLint at 1 µM in data set [6] was 100 µL/min/mg; in data set [5], 133 µL/min/mg. This compound displayed an inhibition at 0.25 h, 10 µM in data set [7] of 57%.

In the case of `O=C1Cc2cc(Oc3ccc(Nc4ncnc5ccn(CCO)c45)cc3Cl)ccc2N1`, the concentration for half-maximal inhibition (IC50) in data set [1] is 960 nM; in data set [3], 28 nM. In data set [2], this compound gave a GI50 of 1350 nM. Further, the inhibition entry in data set [4] is “inactive”.

For `O=C1NCc2cc(Oc3ccc(Nc4ncnc5ccn(CCO)c45)cc3Cl)ccc21`, the values for the 50% inhibitory concentration (IC50) in data set [1] and in data set [3] were 510 nM and 18 nM, respectively. Further, the GI50 in data set [2] was found to be 4080 nM. Moreover, the inhibition result in data set [4] was “inactive”.

For `O=C1Cc2ccc(Oc3ccc(Nc4ncnc5ccn(CCO)c45)cc3Cl)cc2N1`, the results for the IC50 in data set [1] and in data set [3] were 2300 nM and 130 nM, respectively. This compound registered a GI50 in data set [2] of 1880 nM. For the same compound, in data set [4], the inhibition result is “inactive”.

For `CC(C)(C)NC(=O)c1cccc(Oc2ccc(Nc3ncnc4ccn(CCO)c34)cc2Cl)c1`, the concentration for half-maximal inhibition (IC50) in data set [1] worked out at 33 nM; in data set [3], 2.3 nM. For the same compound, the GI50 in data set [2] came out at 88 nM.

`OCCn1ccc2ncnc(Nc3ccc(Oc4cccc5sncc45)c(Cl)c3)c21`: the IC50 in data set [1] came out at 4.1 nM; in data set [3], 2.1 nM. In data set [2], this compound had a GI50 of 3.6 nM. Also, the values for the microsomal CLint at 1 µM in data set [6] and in data set [5] were 142 µL/min/mg and 129 µL/min/mg, respectively. Moreover, the inhibition result in data set [4] was “Active”. Besides, the inhibition at 0.25 h, 10 µM in data set [7] amounted to 47.2%.

As for `O=C1Cc2cccc(Oc3ccc(Nc4ncnc5ccn(CCO)c45)cc3Cl)c2N1`, in data set [2], the GI50 was found to be 73 nM. Besides, the half-maximal inhibitory concentration (IC50) in data set [3] was determined as 1.5 nM. Besides, the inhibition result in data set [4] was “Active”.

Turning to `O=C1NCc2ccc(Oc3ccc(Nc4ncnc5ccn(CCO)c45)cc3Cl)cc21`, the IC50 in data set [1] worked out at 7.8 nM; in data set [3], 1.3 nM. In data set [2], this compound gave a GI50 of 43 nM. Further, in data set [4], the inhibition result was “Active”.

Turning to `O=C1NCc2cccc(Oc3ccc(Nc4ncnc5ccn(CCO)c45)cc3Cl)c21`, the values for the IC50 in data set [1] and in data set [3] were 21 nM and 2.5 nM, respectively. The compound also gave a GI50 in data set [2] of 768 nM. The inhibition result in data set [4] is “inactive”.

Turning to `OCCn1ccc2ncnc(Nc3ccc(Oc4cccc(C(F)(F)F)c4)c(Cl)c3)c21`, the half-maximal inhibitory concentration (IC50) in data set [1] turned out to be 34 nM.

Regarding `CC(C)(CO)C(=O)NCCn1ccc2ncnc(Nc3ccc(Oc4cccc5sncc45)c(Cl)c3)c21`, the IC50 in data set [1] came to 7 nM; in data set [3] it was 3.3 nM. This compound also came in with a GI50 in data set [2] of 8.6 nM. In addition, the microsomal CLint at 1 µM in data set [6] came out at 88 µL/min/mg; in data set [5], 113 µL/min/mg.

In the case of `Cn1ncc2c(Oc3ccc(Nc4ncnc5ccn(CCO)c45)cc3Cl)cccc21`, the figures for the IC50 in data set [1] and in data set [3] were 36 nM and 2.1 nM, respectively. In addition, in data set [2], the 50% growth inhibitory concentration (GI50) was 164 nM. Moreover, the microsomal CLint at 1 µM in data set [6] came to 106 µL/min/mg; in data set [5], 219 µL/min/mg. Further, the inhibition entry in data set [4] was “inactive”.

Turning to `CC(C)(O)C(=O)NCCn1ccc2ncnc(Nc3ccc(Oc4cccc5sncc45)c(Cl)c3)c21`, the IC50 came out at 7 nM in data set [1] and 2.2 nM in data set [3]. This compound also had a GI50 in data set [2] of 9.4 nM. Further, the figures for the microsomal CLint at 1 µM in data set [6] and in data set [5] were 145 µL/min/mg and 117 µL/min/mg, respectively. The inhibition at 0.25 h, 10 µM in data set [7] turned out to be 62.6%.
